{"source": "paper PMC7933930", "about": "“Development of a small molecule that corrects misfolding and increases secretion of Z α1‐antitrypsin” (EMBO Molecular Medicine, 2021)", "key": {"M and Z α1‐antitrypsin": {"tested_on": "M and Z α1‐antitrypsin", "test": "Heat‐induced oligomerisation, constant temperature, non‐denaturing PAGE", "assay_type": "biochemical, human", "conditions": "constant‐temperature experiment, 4 h, 48 to 65°C", "text": "(§1) Polymerisation of α1‐antitrypsin involves transition through a transient intermediate state known as M*, that is readily populated by the Z variant (Dafforn et al, 1999; Knaupp et al, 2010). The M* conformational ensemble appears to be a distinct species between the native state conformation and that of the final polymer. One of the hallmarks of M* is its recognition by environment‐sensitive fluorescent reporter dyes. Thermal shift assays that make use of the dye SYPRO Orange report the stability of the protein native state against heat‐induced unfolding. […] Native state stability can also be probed by equilibrium unfolding using chemical denaturants, where a peak in bis‐ANS fluorescence corresponds with a maximally populated unfolding intermediate (James & Bottomley, 1998). […] The association of GSK716 induced a marked quenching and blue‐shift of the α1‐antitrypsin intrinsic tryptophan fluorescence spectrum (Fig 4D, inset). The rate of change in fluorescence during association of 10µM GSK716 was proportional to the propensity of α1‐antitrypsin mutants to form polymers in vivo: inert (M), mild (S), moderate (Baghdad) and severe (Z) α1‐antitrypsin (Fig 4D, top and bottom). […]"}, "Acetyl- cholinesterase": {"target": "Acetyl- cholinesterase (Homo sapiens, UniProt P22303)", "sequence (P22303 32-614, species assumed)": "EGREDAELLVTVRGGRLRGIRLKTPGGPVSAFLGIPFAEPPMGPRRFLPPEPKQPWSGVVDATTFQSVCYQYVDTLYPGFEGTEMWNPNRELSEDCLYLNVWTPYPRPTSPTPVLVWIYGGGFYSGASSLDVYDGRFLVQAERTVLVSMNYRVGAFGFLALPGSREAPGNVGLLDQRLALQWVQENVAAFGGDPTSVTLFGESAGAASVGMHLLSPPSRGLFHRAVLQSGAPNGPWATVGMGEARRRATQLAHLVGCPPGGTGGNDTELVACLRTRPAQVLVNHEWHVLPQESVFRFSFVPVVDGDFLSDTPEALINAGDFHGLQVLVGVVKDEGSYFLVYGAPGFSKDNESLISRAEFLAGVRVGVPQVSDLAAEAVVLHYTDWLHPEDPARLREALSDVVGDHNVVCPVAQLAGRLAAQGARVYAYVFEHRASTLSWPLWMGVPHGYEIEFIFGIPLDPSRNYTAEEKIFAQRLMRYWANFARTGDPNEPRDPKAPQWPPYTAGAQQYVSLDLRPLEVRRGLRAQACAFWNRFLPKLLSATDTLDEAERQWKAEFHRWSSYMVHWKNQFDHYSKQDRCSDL", "test": "Off‐target panel: Acetyl- cholinesterase", "assay_type": "biochemical", "experimental": "(§2) GSK716 selectivity and PK properties were profiled in order to investigate the suitability of GSK716 for progression into in vivo studies and the potential for taking it forward as a clinical candidate for testing in humans. Since GSK716 results in loss of inhibitory activity of α1‐antitrypsin, the effect of the compound was assessed on other closely related serpins. […] Furthermore, there were no off‐target effects in a panel of assays considered predictive of known safety liabilities that precluded further development of GSK716 (Table EV1)."}, "Histamine H1": {"target": "Histamine H1 (Homo sapiens, UniProt P35367)", "test": "Off‐target panel: Histamine H1", "assay_type": "cell-based", "conditions": "Antagonist, read-out: Mean (PXC50)", "experimental": "as §2"}, "[1]": {"target": "L-type Ca channel (CaV1.2) (Homo sapiens, UniProt Q13936)", "sequence (Q13936 whole entry)": "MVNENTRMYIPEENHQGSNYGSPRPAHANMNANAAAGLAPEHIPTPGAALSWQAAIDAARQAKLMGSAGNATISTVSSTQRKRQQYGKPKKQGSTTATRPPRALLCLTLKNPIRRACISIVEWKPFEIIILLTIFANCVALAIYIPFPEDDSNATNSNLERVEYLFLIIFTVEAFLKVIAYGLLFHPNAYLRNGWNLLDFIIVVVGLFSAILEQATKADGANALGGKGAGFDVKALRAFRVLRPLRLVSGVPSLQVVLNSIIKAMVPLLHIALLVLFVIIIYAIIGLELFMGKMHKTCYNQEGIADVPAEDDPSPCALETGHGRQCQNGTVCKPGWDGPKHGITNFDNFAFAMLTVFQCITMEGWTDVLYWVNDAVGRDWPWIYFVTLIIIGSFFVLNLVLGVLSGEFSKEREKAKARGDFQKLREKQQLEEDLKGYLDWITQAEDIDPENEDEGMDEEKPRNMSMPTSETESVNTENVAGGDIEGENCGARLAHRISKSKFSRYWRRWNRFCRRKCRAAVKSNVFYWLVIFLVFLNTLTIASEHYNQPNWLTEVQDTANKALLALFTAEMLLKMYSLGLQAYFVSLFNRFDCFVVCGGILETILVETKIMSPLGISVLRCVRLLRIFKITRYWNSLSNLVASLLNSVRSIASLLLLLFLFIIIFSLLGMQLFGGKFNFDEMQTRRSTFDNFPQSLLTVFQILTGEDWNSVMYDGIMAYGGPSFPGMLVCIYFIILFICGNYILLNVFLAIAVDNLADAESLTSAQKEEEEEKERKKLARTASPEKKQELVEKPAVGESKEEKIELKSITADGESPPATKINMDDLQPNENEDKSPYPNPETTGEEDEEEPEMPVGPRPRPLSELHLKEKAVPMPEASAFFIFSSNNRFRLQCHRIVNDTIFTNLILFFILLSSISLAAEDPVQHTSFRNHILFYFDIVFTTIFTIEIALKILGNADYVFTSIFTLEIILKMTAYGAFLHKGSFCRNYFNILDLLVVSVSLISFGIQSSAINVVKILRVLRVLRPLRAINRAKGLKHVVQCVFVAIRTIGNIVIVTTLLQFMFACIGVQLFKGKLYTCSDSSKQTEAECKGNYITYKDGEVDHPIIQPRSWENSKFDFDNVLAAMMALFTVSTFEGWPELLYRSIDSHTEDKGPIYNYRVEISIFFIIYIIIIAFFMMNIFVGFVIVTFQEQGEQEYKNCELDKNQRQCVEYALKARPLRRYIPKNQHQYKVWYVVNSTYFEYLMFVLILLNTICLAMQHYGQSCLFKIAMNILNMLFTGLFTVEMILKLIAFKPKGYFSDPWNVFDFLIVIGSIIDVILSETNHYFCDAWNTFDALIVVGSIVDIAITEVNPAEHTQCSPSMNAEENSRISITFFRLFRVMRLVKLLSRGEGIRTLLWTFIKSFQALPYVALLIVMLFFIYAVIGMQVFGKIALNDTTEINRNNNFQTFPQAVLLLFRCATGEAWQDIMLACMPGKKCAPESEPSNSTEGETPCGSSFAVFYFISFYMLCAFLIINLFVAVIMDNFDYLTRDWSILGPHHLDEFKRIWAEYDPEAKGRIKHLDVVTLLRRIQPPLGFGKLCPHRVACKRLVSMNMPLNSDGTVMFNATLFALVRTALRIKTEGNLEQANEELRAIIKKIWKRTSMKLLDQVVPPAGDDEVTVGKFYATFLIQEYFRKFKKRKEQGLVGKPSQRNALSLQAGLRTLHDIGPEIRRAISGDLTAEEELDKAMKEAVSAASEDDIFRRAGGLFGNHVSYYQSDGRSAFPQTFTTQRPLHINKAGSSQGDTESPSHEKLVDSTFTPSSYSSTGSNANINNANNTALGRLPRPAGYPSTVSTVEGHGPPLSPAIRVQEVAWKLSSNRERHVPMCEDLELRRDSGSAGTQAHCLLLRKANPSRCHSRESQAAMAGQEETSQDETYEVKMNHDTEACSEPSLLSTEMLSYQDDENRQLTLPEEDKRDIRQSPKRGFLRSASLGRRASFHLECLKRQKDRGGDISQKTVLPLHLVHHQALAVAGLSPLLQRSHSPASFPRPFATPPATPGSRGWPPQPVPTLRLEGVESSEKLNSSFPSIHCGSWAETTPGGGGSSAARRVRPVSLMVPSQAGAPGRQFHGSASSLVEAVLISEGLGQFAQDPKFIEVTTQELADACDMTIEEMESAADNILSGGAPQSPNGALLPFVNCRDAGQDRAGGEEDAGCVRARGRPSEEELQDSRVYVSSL", "sequence (Q08289 whole entry partner)": "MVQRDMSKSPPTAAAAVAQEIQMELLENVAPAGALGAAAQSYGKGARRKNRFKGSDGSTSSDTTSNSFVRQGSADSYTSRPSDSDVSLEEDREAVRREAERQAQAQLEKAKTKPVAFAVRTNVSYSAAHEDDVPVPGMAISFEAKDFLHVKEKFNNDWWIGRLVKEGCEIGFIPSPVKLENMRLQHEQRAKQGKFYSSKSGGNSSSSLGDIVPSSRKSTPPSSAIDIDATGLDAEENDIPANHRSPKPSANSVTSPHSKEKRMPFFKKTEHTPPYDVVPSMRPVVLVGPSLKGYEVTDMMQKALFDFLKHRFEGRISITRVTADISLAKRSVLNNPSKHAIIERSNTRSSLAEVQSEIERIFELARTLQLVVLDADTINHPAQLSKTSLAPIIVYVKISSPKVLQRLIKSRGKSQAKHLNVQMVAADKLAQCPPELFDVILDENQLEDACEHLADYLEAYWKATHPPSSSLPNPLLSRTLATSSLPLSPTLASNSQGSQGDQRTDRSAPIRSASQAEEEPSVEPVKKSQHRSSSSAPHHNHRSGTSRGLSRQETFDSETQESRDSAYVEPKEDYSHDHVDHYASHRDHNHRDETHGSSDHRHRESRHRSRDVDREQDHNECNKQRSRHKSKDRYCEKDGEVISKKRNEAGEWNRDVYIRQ", "sequence (P54289 25-946 partner limits assumed)": "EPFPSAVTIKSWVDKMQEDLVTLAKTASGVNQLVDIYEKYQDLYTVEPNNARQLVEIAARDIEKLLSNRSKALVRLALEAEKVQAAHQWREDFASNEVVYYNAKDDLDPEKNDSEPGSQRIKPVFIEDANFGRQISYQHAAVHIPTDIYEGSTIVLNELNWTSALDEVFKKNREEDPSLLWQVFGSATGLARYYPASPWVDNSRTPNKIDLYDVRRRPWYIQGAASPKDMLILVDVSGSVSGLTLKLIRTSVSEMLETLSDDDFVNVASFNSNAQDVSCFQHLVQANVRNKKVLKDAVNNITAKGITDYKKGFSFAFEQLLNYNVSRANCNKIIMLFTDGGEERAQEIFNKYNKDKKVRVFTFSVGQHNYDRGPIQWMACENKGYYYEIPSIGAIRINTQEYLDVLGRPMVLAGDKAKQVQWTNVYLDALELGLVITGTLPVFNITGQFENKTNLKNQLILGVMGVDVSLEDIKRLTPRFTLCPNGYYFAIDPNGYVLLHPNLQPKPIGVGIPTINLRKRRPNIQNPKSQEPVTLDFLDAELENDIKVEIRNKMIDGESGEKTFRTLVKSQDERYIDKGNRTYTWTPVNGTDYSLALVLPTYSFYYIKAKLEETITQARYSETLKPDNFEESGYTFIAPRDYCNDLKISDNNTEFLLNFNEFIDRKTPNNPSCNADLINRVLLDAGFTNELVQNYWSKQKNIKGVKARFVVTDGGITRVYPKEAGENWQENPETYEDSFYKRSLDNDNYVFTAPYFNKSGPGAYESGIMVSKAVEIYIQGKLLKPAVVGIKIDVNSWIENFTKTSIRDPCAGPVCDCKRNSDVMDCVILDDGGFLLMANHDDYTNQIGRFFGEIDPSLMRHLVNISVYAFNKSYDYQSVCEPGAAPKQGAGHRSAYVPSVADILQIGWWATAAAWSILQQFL", "sequence (P54289 947-1103 partner limits assumed)": "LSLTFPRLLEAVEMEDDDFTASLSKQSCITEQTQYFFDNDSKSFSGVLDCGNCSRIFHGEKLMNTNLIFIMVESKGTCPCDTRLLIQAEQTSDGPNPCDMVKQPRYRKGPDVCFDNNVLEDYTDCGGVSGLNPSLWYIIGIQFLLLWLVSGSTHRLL", "test": "in vitro", "assay_type": "cell-based", "experimental": "as §2"}, "[2]": {"tested_on": "α1‐antitrypsin variants M, S, Baghdad, Z", "test": "Association with α1‐antitrypsin variants M, S, Baghdad and Z (intrinsic tryptophan fluorescence)", "assay_type": "binding, human", "conditions": "10 μM GSK716", "text": "as §1"}, "[3]": {"test": "Oral pharmacokinetics in rat", "assay_type": "in vivo", "conditions": "Han Wistar, whole blood, ≤ 3 mg/kg, read-out: F (oral bioavailability)", "experimental": "[…] Blood samples were taken into EDTA, diluted and mixed with acetonitrile containing internal standard (alprazolam) and centrifuged to precipitate proteins. Aliquots of the resultant supernatant were analysed by LC‐MS/MS, and concentrations of GSK716 in blood were determined. Non‐compartmental pharmacokinetic analysis (NCA) was carried out using Phoenix WinNonLin 6.3 (Certara L.P.). Free drug was measured in Z α1‐antitrypsin transgenic mice by dialysing tissue samples in rapid equilibrium dialysis cassettes."}, "Adrenergic β2": {"target": "Adrenergic β2 (Homo sapiens, UniProt P07550)", "sequence (P07550 whole entry)": "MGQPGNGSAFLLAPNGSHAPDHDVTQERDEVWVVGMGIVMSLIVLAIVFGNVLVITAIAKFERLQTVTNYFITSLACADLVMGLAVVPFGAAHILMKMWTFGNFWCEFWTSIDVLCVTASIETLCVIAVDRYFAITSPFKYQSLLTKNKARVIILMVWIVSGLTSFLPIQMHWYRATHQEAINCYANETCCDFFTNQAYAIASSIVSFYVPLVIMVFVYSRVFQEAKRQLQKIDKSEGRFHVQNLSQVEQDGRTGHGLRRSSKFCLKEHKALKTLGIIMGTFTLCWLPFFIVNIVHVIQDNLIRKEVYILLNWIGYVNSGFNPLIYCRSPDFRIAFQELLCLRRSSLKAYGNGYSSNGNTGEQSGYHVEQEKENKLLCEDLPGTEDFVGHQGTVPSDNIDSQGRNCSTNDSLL", "test": "Off‐target panel: Adrenergic β2", "assay_type": "cell-based", "conditions": "read-out: Mean (PXC50)", "experimental": "as §2"}}, "data": [{"smiles": "CCC[C@@H](NC(=O)c1cccc2c1CC(=O)N2)[C@@H](O)c1cccc(F)c1C", "note": "[GSK716]", "values": [{"measurement": "temperature of oligomer generation", "setting": "M and Z α1‐antitrypsin", "result": "oligomers were generated at higher temperatures in the presence of the compound than in its absence"}, {"measurement": "IC50", "setting": "Acetyl- cholinesterase", "result": 100, "unit": "µM"}, {"measurement": "IC50", "setting": "Histamine H1", "result": "> 25.1", "unit": "µM"}, {"measurement": "IC50", "setting": "[1]", "result": "< 2.14", "unit": "µM"}, {"measurement": "binding / rate of association across α1‐antitrypsin variants", "setting": "[2]", "result": "M < S < Baghdad < Z α1‐antitrypsin"}, {"measurement": "bioavailability", "setting": "[3]", "result": 48, "unit": "%"}, {"measurement": "EC50", "setting": "Adrenergic β2; Agonist", "result": "> 100", "unit": "µM"}, {"measurement": "IC50", "setting": "Adrenergic β2; Antagonist", "result": "> 100", "unit": "µM"}]}]}
